The source of these data is US12435312B2, “Quantifying cell-derived changes in collagen synthesis, alignment, and mechanics in a 3D connective tissue model” (Brown University, priority 2022, dated 2025).

Assay [1] has as its system normal human dermal fibroblasts (ring-shaped tissue constructs). Briefly: Tensile mechanical testing to failure of ring-shaped tissue constructs. It is filed as cell-based. As for the experimental part: (§1) Cell Source and Culture Conditions: Juvenile normal human dermal fibroblasts (jNHDF) were purchased from PromoCell (Heidelberg, Germany). Cells were expanded in Dulbecco's Modified Eagle's medium (DMEM) with high glucose, 1-glutamine, phenol red, and sodium pyruvate (11995065, Thermo Fisher Scientific, Waltham, MA) supplemented with 10% FBS and 1% penicillin/streptomycin at 10% CO2 and 37° C. Cells were passaged (P3-8) and expanded using a standard trypsin protocol. Cells were rinsed with 1× PBS (SH30256.FS, Thomas Scientific, Swedesboro, NJ), exposed to 0.05% trypsin in PBS for 4 min, quenched with serum containing media, centrifuged at 220g for 3 min, resuspended, counted, and plated at a density of 3.5-7.0×10^3 cells per cm^2. Ring-shaped tissue constructs (5 mm) were seeded at 3×10^5 cells per well in 1 mL of media exchanged every 2/3 days unless otherwise noted. For media composition experiments, tissues were cultured in serum-free DMEM supplemented with 0.1 mm 2-phospho-l-ascorbic acid trisodium salt (SigmaAldrich, St. Louis, MO), 50.0 μg mL^−1 I-proline (Thermo Fisher), 1% penicillin/streptomycin (SFM+), advanced DMEM (12491015) supplemented with 4 mm GlutaMax and 1% penicillin/streptomycin (SFMA), or a 50:50 mixture of the two (50:50 SFM+/SFMA).
Fabrication of Ring-Shaped Tissue Constructs: Ring-shaped molds were designed usingCADsoftware (SolidWorks Corporation, Concord, MA) and fabricated from stainless steel 316 L on a CNC lathe (Protolabs, Maple Plain, MN). The stainless steel parts were designed to fit into a single well of a standard 24 well plate. Ring-shaped agarose gels were cast by placing the stainless steel part into a well filled with 1.5 mL of molten, sterile 2% (w/v) agarose (BP160-500, Fisher Scientific, Hampton, NH) in 1× PBS, allowed to harden for 15 min, and removed. […] A lid mirroring a standard 24 well plate lid was fabricated out of aluminum with through holes above each well to permit the placement of all 24 stainless steel parts simultaneously. Gels were equilibrated in serum-free DMEM with 1% penicillin/streptomycin at 37° C., 10% CO2 for at least 24 h before use.
Drug Treatment: For all dose-response experiments, ring constructs were allowed to form for 24 h prior to treatment. FBS (12483020, Life Technologies, Carlsbad, CA), Y-27632 (S1049, Selleck Chemicals, Houston, TX), TGF-β1 (7754-BH-25, […]), and SB-431542 (S1067, Selleck Chemicals) doses were freshly prepared from frozen aliquots and resuspended in 50:50 SFM+/SFMA medium prior to feeding 3× per week. Doses of FBS were prepared at 10%, 1.0%, and 0.1% [v/v] concentrations with a 0% control. Y-27632 and SB-431542 were reconstituted in dimethyl sulfoxide (DMSO) and resuspended at a final concentration of 10, 1.0, 0.1, and a 0 μm vehicle control with a DMSO final volume always less than 0.1%. TGF-β1 was reconstituted in 0.1% bovine serum albumin (BSA) in 4 mm HCl (RB04, […]) and prepared at a final concentration of 10, 2, 0.4, and 0 ng mL^−1 vehicle control.
Mechanical Testing: Ring-shaped microtissues were mechanically tested using custom designed grippers on a uniaxial tensile testing setup (Instron 5943, Norwood, MA) equipped with a 5N (5 mn resolution) load cell. Agarose molds were trimmed with a razor blade and top and sideview brightfield images were obtained on a Nikon Eclipse Ts2 microscope (Nikon, Tokyo, Japan) to determine the initial elliptical cross-sectional area (A0). Just prior to testing, tissue constructs were gently removed from the agarose mold using forceps and mounted between grippers which consisted of two horizontal cylindrical segments with a circular diameter of 3 mm fabricated from glass filled nylon (PA614-GS, ProtoLabs). Tissues were brought to a 5 mm initial grip-to-grip distance and tests were performed in PBS at 37° C. […]

Assay [2] has the same test system. Nature of the assay: Collagen quantification (pepsin-acid soluble collagen, sircol dye binding assay) of ring-shaped tissue constructs. It is filed as cell-based. The following applies: for effect on collagen content: p>0.05. As for the experimental part:
as §1
Drug Treatment: For all dose-response experiments, ring constructs were allowed to form for 24 h prior to treatment. […]
Collagen Quantification: Tissues were homogenized with 2 mm glass beads for 2/3 min and solubilized in 0.1 mg mL^−1 pepsin in 0.5 m acetic acid at 4° C. for 48 h. Total pepsin-acid soluble collagen was quantified via sircol dye binding assay per kit instructions (S5000, Biocolor, United Kingdom). Absorbance was measured at 525 nm and collagen content was determined from a standard curve and adjusted to microgram equivalent of native pepsin-acid soluble collagen.

The next assay relates to actomyosin network. The following applies: disruption of the actomyosin network; cited from earlier work.
The mark [3] stands for this setting: highest inhibitory concentration (10.0 μM) in 50:50 media, day 7 and 14, p<0.05.
[4] abbreviates: 10 ng mL^−1 TGF-β1 versus 10 μm SB431542, day 7.
[5] abbreviates: 0.1, 1.0, 10.0 μM in 50:50 media from 24 h after seeding, 7 or 14 days, p>0.05.

On to `NC(=O)c1ccc(-c2nc(-c3ccc4c(c3)OCO4)c(-c3ccccn3)[nH]2)cc1` [SB-431542], for which, in assay [1] (setting [3]), the “effect on tissue stiffness” value was “weakest stiffness and strength”; the “effect on tissue strength” value is “weakest stiffness and strength”. In assay [2] (0.1, 1.0, 10.0 μM in 50:50 media, any dose or time point), the “effect on collagen content” value is listed as “no effect”.

Take cytochalasin: the “effect on development of mechanical properties” value in the assay with actomyosin network is “halts the development of mechanical properties”.

With `Cc1ccc2c(c1)C(=O)C1(O)CCN(c3ccccc3)C1=N2` (stereo not drawn) [blebbistatin], the “effect on development of mechanical properties” value in the assay with actomyosin network is reported as “halts the development of mechanical properties”.

As to “TGF-β1: pleiotropic growth factor and proposed master mediator of fibrotic disorders”, in assay [1] (setting [4]), the “increase in tissue stiffness, TGF-β1 stimulation versus inhibition with SB431542” value was found to be 4.8 fold and the “increase in tissue strength, TGF-β1 stimulation versus inhibition with SB431542” value is 6.5 fold. The “effect on tissue mechanics (stiffness and strength)” value in assay [1] (0.4, 2.0, 10 ng mL^−1 in 50:50 media, day 7 and 14, p<0.05) is “increased tissue mechanics in a significant dose-dependent manner”. In addition, in assay [2] (0.4, 2.0, 10 ng mL^−1 in 50:50 media, day 7 and 14), the “change in collagen content” value is given as “not a concomitant change”.

`C[C@@H](N)[C@H]1CC[C@H](C(=O)Nc2ccncc2)CC1` [Y-27632]: in assay [1] (setting [5]), the “effect on tissue stiffness” value is on record as “did not significantly affect” and the “effect on tissue strength” value is given as “did not significantly affect”. The “effect on collagen content” value in assay [2] (0.1, 1.0, 10.0 μM in 50:50 media from 24 h after seeding, 7 or 14 days) was “did not significantly affect”.
